Reference: patent publication US12384787B2, “Fused heterocyclic compounds and their use as pest control agents” (PI INDUSTRIES LTD., priority 2019, dated 2025)

Columns and labels:
Type in all cases: in vivo
Spodoptera litura = Spodoptera litura diet incorporation method; details: third instar larvae, 96 h after release, dead and moribund combined, compared to untreated control, read-out: Percent mortality
Description: Diet incorporation method was used, in which the required quantity of test compounds were weighed and dissolved in surfactant solution, kept on vortex for 90 min for proper mixing, then diluted with water to the desired test concentrations. The solutions were incorporated into semi-synthetic diet when the temperature reached approximately 50° C. in the bioassay containers. The diet and solution was stirred thoroughly for properly mixing and was left to cool for 30 min. The solidified diet was cut into equal pieces, and then each piece was transferred into one cell of the bio-assay trays. A single starved third instar larva was released into each of these cells of the bioassay trays and the tray was covered with a lid. The bio-assay trays were kept under laboratory conditions at a temperature of 25° C. and relative humidity of 70%. Observations on dead, moribund and alive larvae were recorded at 96 h after the release of the larvae. Percent mortality was calculated by combining dead and moribund larvae and comparing the result to the one of the untreated control.

Helicoverpa armigera = Helicoverpa armigera diet incorporation method; details: third instar larvae, 96 h after release, dead and moribund combined, compared to untreated control, read-out: Percent mortality
Description: Diet incorporation method was used, in which the required quantity of test compounds were weighed and dissolved in a surfactant solution, kept on vortex for 90 min for proper mixing, then was diluted with water to the desired test concentrations. The solutions were incorporated into semi-synthetic diet when the temperature reached approximately 50° C. in the bioassay containers. The diet and solution was stirred thoroughly for properly mixing and then left to cool for 30 min. The solidified diet was cut into equal pieces, and then each piece was transferred into one cell of the bio-assay trays. A single third starved instar larva was released into each of these cells of the bioassay trays and each tray was covered with a lid. The bio-assay trays were kept under laboratory conditions at a temperature of 25° C. and relative humidity of 70%. Observations on dead, moribund and alive larvae were recorded at 96 h after the release of the larvae. Percent mortality was calculated by combining dead and moribund larvae and comparing the result to the one of the untreated control.

Plutella xylostella = Plutella xylostella leaf dip method (cabbage leaves); details: foliar, second instar larvae, 72 h after release, dead and moribund combined, compared to untreated control, read-out: Percent mortality
Description: The leaf dip method was used for testing, wherein the required quantity of the compounds were weighed and dissolved in a surfactant solution, kept on a Vortex at 2000 rpm with zirconia beads for 90 min for proper mixing and then diluted with 0.01% Triton-X solution to the desired test concentration. Cabbage leaves were dipped in the solution for 10 seconds, shade dried for 20 min and then transferred to bioassay trays. A single second instar larva was released into each bioassay tray cell and the tray was covered with a lid. The bio-assay trays were kept under laboratory conditions at a temperature of 25° C. and relative humidity of 70%. Observations on dead, moribund and living larvae were recorded at 72 h after the release. Percent mortality was calculated by combining dead and moribund larvae and comparing the result to the one of the untreated control.

| Compound | mortality at 300 ppm (Spodoptera litura) [%] | mortality at 300 ppm (Helicoverpa armigera) [%] | mortality at 300 ppm (Plutella xylostella) [%] |
| --- | --- | --- | --- |
| CCS(=O)(=O)c1nn2c(-c3cc(F)cc(Cl)c3)ccnc2c1-c1nc2cc(C(F)(F)F)cnc2n1C [Compound 103, 2-(7-(3-Chloro-5-fluorophenyl)-2-(ethylsulfonyl)pyrazolo[1,5-a]pyrimidin-3-yl)-3-methyl-6-(trifluoromethyl)-3H-imidazo[4,5-b]pyridine] | > 70 | > 70 | > 70 |
| CCS(=O)(=O)c1nn2c(-c3ccc(OC(F)(F)C(F)F)cc3)ccnc2c1-c1nc2cc(C(F)(F)F)cnc2n1C [Compound 90, 2-(2-(Ethylsulfonyl)-7-(4-(1,1,2,2-tetrafluoroethoxy)phenyl)pyrazolo[1,5-a]pyrimidin-3-yl)-3-methyl-6-(trifluoromethyl)-3H-imidazo[4,5-b]pyridine] | > 70 | > 70 | > 70 |
| CCS(=O)(=O)c1nn2c(-c3cccc(C(F)(F)F)c3)ccnc2c1-c1nc2cc(C(F)(F)F)cnc2n1C [Compound 129, 2-(2-(ethylsulfonyl)-7-(3-(trifluoromethyl)phenyl)pyrazolo[1,5-a]pyrimidin-3-yl)-3-methyl-6-(trifluoromethyl)-3H-imidazo[4,5-b]pyridine] | > 70 |  | > 70 |
| CCSc1nn2c(-c3ccc(OC(F)(F)C(F)F)cc3)ccnc2c1-c1nc2cc(C(F)(F)F)cnc2n1C [Compound 87, 2-(2-(Ethylthio)-7-(4-(1,1,2,2-tetrafluoroethoxy)phenyl)pyrazolo[1,5-a]pyrimidin-3-yl)-3-methyl-6-(trifluoromethyl)-3H-imidazo[4,5-b]pyridine] | > 70 | > 70 | > 70 |
| CCS(=O)(=O)c1nn2c(-c3ccc(OC(F)(F)C(F)F)cc3)ccnc2c1-c1nc2cc(C(F)(F)F)ncc2n1C [Compound 91, 2-(2-(Ethylsulfonyl)-7-(4-(1,1,2,2-tetrafluoroethoxy)phenyl)pyrazolo[1,5-a]pyrimidin-3-yl)-3-methyl-6-(trifluoromethyl)-3H-imidazo[4,5-c]pyridine] |  | > 70 | > 70 |
| CCSc1nn2c(-c3cccc(Cl)c3)ccnc2c1-c1nc2cc(C(F)(F)F)cnc2n1C [Compound 97, 2-(7-(3-Chlorophenyl)-2-(ethylthio)pyrazolo[1,5-a]pyrimidin-3-yl)-3-methyl-6-(trifluoromethyl)-3H-imidazo[4,5-b]pyridine] |  | > 70 |  |
| CCSc1nn2c(-c3ccc(OC(F)(F)F)cc3)ccnc2c1-c1nc2cc(C(F)(F)F)ncc2n1C [Compound 28, 2-(2-(Ethylthio)-7-(4-(trifluoromethoxy)phenyl)pyrazolo[1,5-a]pyrimidin-3-yl)-3-methyl-6-(trifluoromethyl)-3H-imidazo[4,5-c]pyridine] |  | > 70 | > 70 |
| CCS(=O)(=O)c1nn2c(-c3cc(F)cc(F)c3)ccnc2c1-c1nc2cc(C(F)(F)F)cnc2n1C [Compound 101, 2-(7-(3,5-Difluorophenyl)-2-(ethylsulfonyl)pyrazolo[1,5-a]pyrimidin-3-yl)-3-methyl-6-(trifluoromethyl)-3H-imidazo[4,5-b]pyridine] | > 70 | > 70 | > 70 |
| CCS(=O)(=O)c1nn2c(-c3cccc(C(F)(F)F)c3)ccnc2c1-c1nc2cc(C(F)(F)F)ncc2n1C [Compound 136, 2-(2-(Ethylsulfonyl)-7-(3-(trifluoromethyl)phenyl)pyrazolo[1,5-a]pyrimidin-3-yl)-3-methyl-6-(trifluoromethyl)-3H-imidazo[4,5-c]pyridine] |  | > 70 | > 70 |
| CCS(=O)(=O)c1nn2c(-c3cccc(Cl)c3)ccnc2c1-c1nc2cc(C(F)(F)F)cnc2n1C [Compound 99, 2-(7-(3-Chlorophenyl)-2-(ethylsulfonyl)pyrazolo[1,5-a]pyrimidin-3-yl)-3-methyl-6-(trifluoromethyl)-3H-imidazo[4,5-b]pyridine] |  | > 70 | > 70 |
| CCS(=O)(=O)c1nn2c(-c3ccc(OC(F)(F)F)cc3)ccnc2c1-c1nc2cc(S(=O)(=O)C(F)(F)F)ccc2o1 [Compound 32, 2-(2-(Ethylsulfonyl)-7-(4-(trifluoromethoxy)phenyl)pyrazolo[1,5-a]pyrimidin-3-yl)-5-((trifluoromethyl)sulfonyl)benzo[d]oxazole] |  | > 70 | > 70 |
| CCSc1nn2c(-c3ccc(Cl)cc3Cl)ccnc2c1-c1nc2cc(C(F)(F)F)cnc2n1C [Compound 120, 2-(7-(2,4-Dichlorophenyl)-2-(ethylthio)pyrazolo[1,5-a]pyrimidin-3-yl)-3-methyl-6-(trifluoromethyl)-3H-imidazo[4,5-b]pyridine] |  | > 70 |  |
| CCS(=O)(=O)c1nn2c(C)cc(C)nc2c1-c1nc2cc(S(=O)(=O)C(F)(F)F)ccc2o1 [Compound 15, 2-(2-(Ethylsulfonyl)-5,7-dimethylpyrazolo[1,5-a]pyrimidin-3-yl)-5-((trifluoromethyl)sulfonyl)benzo[d]oxazole] | > 70 | > 70 | > 70 |
| CCSc1nn2c(-c3cc(F)cc(Cl)c3)ccnc2c1-c1nc2cc(C(F)(F)F)cnc2n1C [Compound 102, 2-(7-(3-Chloro-5-fluorophenyl)-2-(ethylthio)pyrazolo[1,5-a]pyrimidin-3-yl)-3-methyl-6-(trifluoromethyl)-3H-imidazo[4,5-b]pyridine] |  | > 70 |  |
| CCSc1nn2c(-c3cccc(C(F)(F)F)c3)ccnc2c1-c1nc2cc(C(F)(F)F)ncc2n1C [Compound 134, 2-(2-(Ethylthio)-7-(3-(trifluoromethyl)phenyl)pyrazolo[1,5-a]pyrimidin-3-yl)-3-methyl-6-(trifluoromethyl)-3H-imidazo[4,5-c]pyridine] | > 70 |  |  |
| CCSc1nn2c(-c3cccc(C(F)(F)F)c3)ccnc2c1-c1nc2cc(C(F)(F)F)cnc2n1C [Compound 126, 2-(2-(Ethylthio)-7-(3-(trifluoromethyl)phenyl)pyrazolo[1,5-a]pyrimidin-3-yl)-3-methyl-6-(trifluoromethyl)-3H-imidazo[4,5-b]pyridine] | > 70 | > 70 |  |
| CCS(=O)(=O)c1nn2cc(-c3ccc(OC(F)(F)C(F)F)cc3)cnc2c1-c1nc2cc(C(F)(F)F)ncc2n1C [Compound 109, 2-(2-(Ethylsulfonyl)-6-(4-(1,1,2,2-tetrafluoroethoxy)phenyl)pyrazolo[1,5-a]pyrimidin-3-yl)-3-methyl-6-(trifluoromethyl)-3H-imidazo[4,5-c]pyridine] |  | > 70 | > 70 |
| CCS(=O)(=O)c1nn2c(-c3ccc(Cl)cc3)ccnc2c1-c1nc2cc(C(F)(F)F)cnc2n1C [Compound 39, 2-(7-(4-Chlorophenyl)-2-(ethylsulfonyl)pyrazolo[1,5-a]pyrimidin-3-yl)-3-methyl-6-(trifluoromethyl)-3H-imidazo[4,5-b]pyridine] |  | > 70 | > 70 |
| CCS(=O)(=O)c1nn2c(-c3ccc(Cl)cc3)ccnc2c1-c1nc2cc(C(F)(F)F)ncc2n1C [Compound 37, 2-(7-(4-Chlorophenyl)-2-(ethylsulfonyl)pyrazolo[1,5-a]pyrimidin-3-yl)-3-methyl-6-(trifluoromethyl)-3H-imidazo[4,5-c]pyridine] | > 70 |  | > 70 |
| CCS(=O)(=O)c1nn2c(-c3ccc(F)cc3)ccnc2c1-c1nc2cc(S(=O)(=O)C(F)(F)F)ccc2o1 [Compound 34, 2-(2-(Ethylsulfonyl)-7-(4-fluorophenyl)pyrazolo[1,5-a]pyrimidin-3-yl)-5-((trifluoromethyl)sulfonyl)benzo[d]oxazole] |  |  | > 70 |
| CCS(=O)(=O)c1nn2cc(-c3ccc(OC(F)(F)C(F)F)cc3)cnc2c1-c1nc2cc(C(F)(F)F)cnc2n1C [Compound 96, 2-(2-(Ethylsulfonyl)-6-(4-(1,1,2,2-tetrafluoroethoxy)phenyl)pyrazolo[1,5-a]pyrimidin-3-yl)-3-methyl-6-(trifluoromethyl)-3H-imidazo[4,5-b]pyridine] |  |  | > 70 |
| CCS(=O)(=O)c1nn2c(-c3ccc(Cl)cc3)ccnc2c1-c1nc2cc(S(=O)(=O)C(F)(F)F)ccc2o1 [Compound 40, 2-(7-(4-Chlorophenyl)-2-(ethylsulfonyl)pyrazolo[1,5-a]pyrimidin-3-yl)-5-((trifluoromethyl)sulfonyl)benzo[d]oxazole] |  |  | > 70 |
